Data: patent publication US12404232B2, “Compounds and compositions for intracellular delivery of therapeutic agents” (ModernaTX, Inc., priority 2015, dated 2025)

Key:
mice [1] = assay: Luc expression (total flux) after intramuscular administration; type: in vivo; settings: 6 hours after intramuscular administration, Luc mRNA and H10 mRNA
Method: The numbers 1-7 in this figure correspond to MC3, Compounds 168-170, and 173-175 respectively.
In order to monitor how effectively various nanoparticle compositions deliver therapeutic and/or prophylactics to targeted cells, different nanoparticle compositions including a particular therapeutic and/or prophylactic (for example, a modified or naturally occurring RNA such as an mRNA) are prepared and administered to rodent populations. Mice are intravenously, intramuscularly, intraarterially, or intratumorally administered a single dose including a nanoparticle composition with a formulation such as those provided in Example 3. In some instances, mice may be made to inhale doses. Dose sizes may range from 0.001 mg/kg to 10 mg/kg, where 10 mg/kg describes a dose including 10 mg of a therapeutic and/or prophylactic in a nanoparticle composition for each 1 kg of body mass of the mouse. A control composition including PBS may also be employed.
The total flux (measured by area under the curve, AUC) induced by administration of a formulation including a given lipid relative to that induced by administration of a formulation including MC3 was also measured for several lipids.
Sample formulations including both modified luciferase (Luc) mRNA and H10 mRNA were prepared and administered intramuscularly and the resulting expression and immunogenicity were evaluated simultaneously. Formulations including compounds according to Formula (I), (IA), (II), (IIa), (IIb), (IIc), (IId) or (IIe) were prepared and administered at doses of 0.001 and 0.01 mpk (e.g., doses of 0.0005 mpk of a formulation including Luc mRNA and a formulation including H10 mRNA or doses of 0.005 mpk of a formulation including Luc mRNA and a formulation including H10 mRNA).
Sample formulations including modified luciferase (Luc) mRNA prepared and administered intramuscularly and the resulting expression and immunogenicity were evaluated simultaneously. Formulations including compounds according to Formula (I), (IA), (II), (IIa), (IIb), (IIc), (IId) or (IIe) were prepared and administered at dose of […] 0.01 mpk.
The fluxes measured upon intravenous and intramuscular administration are compared in Table 6. Fluxes are presented as fold increase over that measured for MC3 formulations.

mice [2] = assay: Cytokine induction (IL-6, IP-10) in mice after intravenous administration; type: in vivo; parameters: IL-6 / IP-10: unit not given here; settings: 0.5 mpk, 6 hours
From the text: The introduction of foreign material into a mammalian body induces an innate immune response that promotes cytokine production. Such immune responses to, for example, nanoparticle compositions including therapeutic and/or prophylactics, are undesirable. The induction of certain cytokines is thus measured to evaluate the […] of nanoparticle compositions. The concentrations of various cytokines in mice upon intravenous administration of nanoparticle compositions presented in Table 1A at a dosage of 0.5 mpk was measured at 6 hours. The standard MC3 formulation and a PBS control were also tested. As is evident in Table 7, IL-6 induction was highest for compositions including Compounds 1, 3, 9, 19, and 26, while IP-10 induction was highest for compositions including Compounds 3, 4, 7, 20, and 26. IL-6 induction was lowest for compositions including Compounds 4, 11, 12, and 28. IP-10 induction was lowest for compositions including Compounds 10, 11, 12, 13, 15, 17, and 18.
The expression of hEPO and cytokine induction in mice intravenously administered a nanoparticle composition at a dose of 0.5 mpk were measured at 3, 6, and 24 hours. […] The expression of hEPO in mice intramuscularly administered a nanoparticle composition from Table 1B at a dose of 0.01 mpk were measured at 3, 6, and 24 hours. […] (see also FIG. 9.)

Row | IL-6 (mice [2]) | IP-10 (mice [2]) | Structure (SMILES) | Total flux (p/s) 0.001 mpk Dose (mice [1]) [p/s] | Total flux (p/s) 0.01 mpk Dose (mice [1]) [p/s]
1 | 130.82 | 234.35 | CCCCCCCCCCCCN(CCO)CCCCCCCCCCCC(=O)OC [Compound 137, Methyl 12-(dodecyl(2-hydroxyethyl)amino)dodecanoate] | 7.57E+04 | 8.09E+04
2 | 327.15 | 1072.04 | CCCCCCCCCCCOC(=O)CCCCCN(CCO)CCCCCC(=O)OCCCCCCCCCCC [Compound 141, Diundecyl 6,6′-((2-hydroxyethyl)azanediyl)dihexanoate] |  | 
3 |  |  | CCCCCCCCCOC(=O)CCCCCCCN(CCO)CCCCCCCC(=O)OC(CCCC)CCCC [Compound 57, nonan-5-yl 8-((2-hydroxyethyl)(8-(nonyloxy)-8-oxooctyl)amino) octanoate] | 1.16E+05 | 2.23E+05
4 | 94.00 | 1015.95 | CCCCCCCCCOC(=O)CCCCCCCN(CCO)CCCCCCCCCC(=O)OC(CCCCCCCC)CCCCCCCC [Compound 23, Heptadecan-9-yl 10-((2-hydroxyethyl)(8-(nonyloxy)-8-oxooctyl)amino) decanoate] | 8.27E+06 | 2.20E+06
5 | 282.82 | 187.83 | CCCCCCCC/C=C\COC(=O)CCCCCN(CCO)CCCCCC(=O)OC/C=C\CCCCCCCC [Compound 140, Di((Z)-undec-2-en-1-yl) 6,6′-((2-hydroxyethyl)azanediyl)dihexanoate] | 2.03E+05 | 6.09E+05
6 |  |  | CCCCCCCCCOC(=O)CCCCCCCN(CCCCCCCC(=O)OC(CCCCCCCC)CCCCCCCC)C[C@H](C)O [Compound 12, Heptadecan-9-yl (S)-8-((2-hydroxypropyl)(8-(nonyloxy)-8-oxooctyl)amino)octanoate] | 8.02E+04 | 8.90E+05
7 | 23.38 | 172.56 | CCCCCCCCCOC(=O)CCCCCCCN(CCO)CCCCCCCC(=O)OCCCCCCCCC [Compound 138, Dinonyl 8,8′-((2-hydroxyethyl)azanediyl)dioctanoate] | 2.72E+05 | 1.19E+06
8 |  | 1468.94 | CCCCCCCCCOC(=O)CCCCCCCN(CCCO)CCCCCCCC(=O)OC(CCCCCCCC)CCCCCCCC [Compound 19, Heptadecan-9-yl 8-((3-hydroxypropyl)(8-(nonyloxy)-8-oxooctyl)amino) octanoate] | 3.28E+06 | 2.96E+07
9 | 75.29 | 621.49 | CCCCCCCCCOC(=O)CCCCCCCN(CCCCCCCC(=O)OC(CCCCCCCC)CCCCCCCC)CCN(C)C [Compound 14, Heptadecan-9-yl 8-((2-(dimethylamino)ethyl)(8-(nonyloxy)-8-oxooctyl)amino)octanoate] |  | 
10 | 90.54 | 976.50 | CCCCCCCCCOC(=O)CCCCCCCN(CCCCCCCC(=O)OC(CCCCCCCC)CCCCCCCC)C1CCCCC1O (stereo not shown) [Compound 22, Heptadecan-9-yl 8-((2-hydroxycyclohexyl)(8-(nonyloxy)-8-oxooctyl)amino)octanoate] |  | 
11 |  | 687.14 | CCCCCCCCCCCCCCCCCCN(CCO)CCCCCCCC(=O)OC(CCCCCCCC)CCCCCCCC [Compound 1, Heptadecan-9-yl 8-((2-hydroxyethyl)(octadecyl)amino)octanoate] |  | 
12 | 88.81 |  | CCCCCCCCCOC(=O)CCCCCCCN(CCCCCCCC(=O)OC(CCCCCCCC)CCCCCCCC)CC(C)O (stereo not shown) [Compound 10, Heptadecan-9-yl 8-((2-hydroxypropyl)(8-(nonyloxy)-8-oxooctyl)amino) octanoate] |  | 
13 |  |  | CCCCCCCCCN(CCCCCCCC(=O)OC(CCCCCCCC)CCCCCCCC)CCCn1ccnc1 [Compound 8, Heptadecan-9-yl 8-((3-(1H-imidazol-1-yl)propyl)(nonyl)amino)octanoate] | 7.81E+05 | 3.32E+06
14 | 29.07 |  | CCCCCCCCCOC(=O)CCCCCCCN(CCCCCCCC(=O)OC(CCCCCCCC)CCCCCCCC)CC(O)CC (stereo not shown) [Compound 13, Heptadecan-9-yl 8-((2-hydroxybutyl)(8-(nonyloxy)-8-oxooctyl)amino) octanoate] |  | 
15 |  |  | CCCCCCCCCOC(=O)CCCCCCCN(CCO)CCCCCCCC(=O)OC(CC)CCCCCCCC (stereo not shown) [Compound 35, nonyl 8-((2-hydroxyethyl)(8-oxo-8-(undecan-3-yloxy)octyl)amino) octanoate] | 2.45E+06 | 8.12E+06
16 | 161.07 | 345.56 | CCCCCCCCCOC(=O)CCCCCCCN(CCO)CCCCCC(=O)OC(CCCCCCCC)CCCCCCCC [Compound 27, Nonyl 8-((6-(heptadecan-9-yloxy)-6-oxohexyl)(2-hydroxyethyl)amino) octanoate] | 2.55E+06 | 3.17E+07
17 | 32.01 | 206.75 | CCCCCCCCCOC(=O)CCCCCCCN(CCCCCCCC(=O)OC(CCCCCCCC)CCCCCCCC)CCCOC [Compound 16, Heptadecan-9-yl 8-((3-methoxypropyl)(8-(nonyloxy)-8-oxooctyl)amino) octanoate] |  | 
18 | 70.95 | 468.86 | CCCCCCCCCCCCCCN(CCO)CCCCCCCC(=O)OC(CCCCCCCC)CCCCCCCC [Compound 2, Heptadecan-9-yl 8-((2-hydroxyethyl)(tetradecyl)amino)octanoate] | 3.55E+06 | 6.16E+07
19 | 138.43 |  | CCCCCCCCCOC(=O)CCCCCCCN(CCCCCCCC(=O)OC(CCCCCCCC)CCCCCCCC)CCOCCN(C)C [Compound 17, Heptadecan-9-yl 8-((2-(2-(dimethylamino)ethoxy)ethyl) (8-(nonyloxy)-8-oxooctyl)amino)octanoate] |  | 
20 |  |  | CCCCCCCCCOC(=O)CCCCCCCN(CCO)CCCCCCCC(=O)OC(CCCCCC)CCCCCCCC (stereo not shown) [Compound 32, nonyl 8-((2-hydroxyethyl)(8-oxo-8-(pentadecan-7-yloxy)octyl)amino) octanoate] | 7.37E+05 | 1.03E+07
21 | 28.69 | 887.91 | CCCCC/C=C\C/C=C\CCCCCCCCN(CCO)CCCCCCCC(=O)OCCCCCCCCC [Compound 136, Nonyl 8-((2-hydroxyethyl)((9Z,12Z)-octadeca-9,12-dien-1-yl)amino)octanoate] |  | 
22 | 64.65 |  | CCCCCCCCCOC(=O)CCCCCCCN(CCCCCCCC(=O)OC(CCCCCCCC)CCCCCCCC)CCOC [Compound 15, Heptadecan-9-yl 8-((2-methoxyethyl)(8-(nonyloxy)-8-oxooctyl)amino)octanoate] |  | 
23 | 23.57 | 153.36 | CCCCCC/C=C\COC(=O)CCCCCCCN(CCO)CCCCCCCC(=O)OC/C=C\CCCCCC [Compound 139, Di((Z)-non-2-en-1-yl) 8,8′-((2-hydroxyethyl)azanediyl)dioctanoate] |  | 

Row | Structure (SMILES) | IL-6 (mice [2]) | IP-10 (mice [2]) | Total flux (p/s) 0.001 mpk Dose (mice [1]) [p/s] | Total flux (p/s) 0.01 mpk Dose (mice [1]) [p/s]
24 | CCCCCCCCCOC(=O)CCCCCCCN(CCCCCCCC(=O)OC(CCCCCCCC)CCCCCCCC)CCOC(C)=O [Compound 9, Heptadecan-9-yl 8-((2-acetoxyethyl)(8-(nonyloxy)-8-oxooctyl)amino) octanoate] |  | 366.53 |  | 
